Measurements: patent US7491794B2, “Macrocyclic compounds as inhibitors of viral replication” (Intermune, Inc., priority 2003, dated 2009)

Molecular target: T1, NS3-NS4 protease (Hepatitis C virus genotype 1a, UniProt P27958)
T1 construct: Recombinant E. coli or Baculovirus full-length NS3 was diluted to 3.33 μM with assay buffer; made in house; host or cells: E. coli or baculovirus (BV) system
Experiment: NS3-NS4 protease assay / NS3 inhibition assay, Section D
Assay type: biochemical
Experimental: NS3-NS4 Protease Assay NS3 complex formation with NS4A-2.
Recombinant E. coli or Baculovirus full-length NS3 was diluted to 3.33 μM with assay buffer and transferred material to an eppendorf tube and place in water bath in 4° C. refrigerator. The appropriate amount of NS4A-2 to 8.3 mM in assay buffer was added to equal the volume of NS3 in step 2.1.1 (conversion factor −3.8 mg/272 μL assay buffer). The material was transferred to an eppendorf tube and place in water bath in 4° C. refrigerator.
After equilibration to 4° C., equal volumes of NS3 and NS4A-2 solutions were combined in an eppendorf tube, mix gently with a manual pipettor, and incubate mixture for 15 minutes in the 4° C. water bath. Final concentrations in the mixture are 1.67 μM NS3, 4.15 mM NS4A-2 (2485-fold molar excess NS4A-2).
After 15 minutes at 4° C., the NS3/NS4A-2 eppendorf tube was removed and placed in a room temperature water bath for 10 minutes. NS3/NS4A-2 was alliquoted at appropriate volumes and store at −80° C. (E. coli NS3 run at 2 nM in assay, aliquot at 25 μL. BV NS3 run at 3 nM in assay, aliquot at 30 μL).
Sample compounds were dissolved to 10 mM in DMSO then diluted to 2.5 mM (1:4) in DMSO.
The E. coli. NS3/NS4A-2 was diluted to 4 nM NS3 (1:417.5 of 1.67 μM stock−18 μL 1.67 μM stock+7497 μL assay buffer).
The BV NS3/NS4A-2 was diluted to 6 nM NS3 (1:278.3 of 1.67 μM stock−24 μL 1.67 μM stock+6655 μL assay buffer).
Using the manual multichannel pipettor, careful not to introduce bubbles into the plate, add 50 μL assay buffer to wells A01-H01 of a black Costar 96-well polypropylene storage plate.
Using the manual multichannel pipettor, careful not to introduce bubbles into the plate, add 50 μL of diluted NS3/NS4A-2 from step 2.2.6 to wells A02-H12 of plate in step 2.2.7.
Using the manual multichannel pipettor, careful not to introduce bubbles into the plate, transfer 25 μL of the wells in drug dilution plate in step 2.2.5 to corresponding wells in assay plate in step 2.2.8. Change tips on multichannel pipettor for each row of compounds transferred.
Using the manual multichannel pipettor, careful not to introduce bubbles into the plate, mix the wells from the assay plate in step 2.2.9 by aspirating and dispensing 35 μL of the 75 μL in each well five times. Change tips on multichannel pipettor for each row of wells mixed.
Cover plate with a polystyrene plate lid and pre-incubate the plate from step 2.2.10 containing NS3 protease and sample compounds 10 minutes at room temperature.
While plate from step 2.2.11 is pre-incubating, dilute RETS1 substrate in a 15 mL polypropylene centrifuge tube.
Dilute RETS1 substrate to 8 μM (1:80.75 of 646 μM stock−65 μL 646 μM stock+5184 μL assay buffer).
After the plate in step is done pre-incubating, and using the manual multichannel, add 25 μL of substrate to all wells on the plate. Quickly mix the plate as in step 2.2.10, mixing 65 μL of the 100 μL in the wells.
Read the plate in kinetic mode on the Molecular Devices SpectraMax Gemini XS plate reader. Reader settings: Read time: 30 minutes, Interval: 36 seconds, Reads: 51, Excitation k: 335 nm, Emission k: 495 nm, cutoff: 475 nm, Automix: off, Calibrate: once, PMT: high, Reads/well: 6, Vmax pts: 21 or 28/51 depending on length of linearity of reaction.
IC50s are determined using a four parameter curve fit equation, and converted to Ki's using the following Km's:
where Ki=IC50/(1+[S]/Km))

T1 sequence (P27958 1027-1657): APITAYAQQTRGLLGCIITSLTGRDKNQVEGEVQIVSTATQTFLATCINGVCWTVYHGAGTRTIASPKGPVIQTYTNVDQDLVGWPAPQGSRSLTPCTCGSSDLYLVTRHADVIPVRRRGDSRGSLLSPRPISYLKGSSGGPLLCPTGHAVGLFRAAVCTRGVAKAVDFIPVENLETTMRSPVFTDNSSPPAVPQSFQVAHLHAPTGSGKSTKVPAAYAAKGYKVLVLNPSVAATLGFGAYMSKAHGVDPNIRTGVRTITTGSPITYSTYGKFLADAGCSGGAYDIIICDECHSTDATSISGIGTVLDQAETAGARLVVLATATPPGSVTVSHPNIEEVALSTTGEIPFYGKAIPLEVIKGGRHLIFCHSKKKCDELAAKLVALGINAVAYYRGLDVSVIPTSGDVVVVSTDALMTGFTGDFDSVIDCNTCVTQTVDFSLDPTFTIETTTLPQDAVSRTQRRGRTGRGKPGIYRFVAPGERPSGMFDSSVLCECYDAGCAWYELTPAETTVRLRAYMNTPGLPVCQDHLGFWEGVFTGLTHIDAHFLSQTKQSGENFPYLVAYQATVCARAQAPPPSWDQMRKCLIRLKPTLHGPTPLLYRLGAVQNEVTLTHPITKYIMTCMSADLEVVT

IC50 [nM]	SMILES
< 100	COc1ccc(C(=O)N[C@@H]2C[C@H]3C(=O)N[C@]4(C(=O)NS(=O)(=O)C5CC5)C[C@H]4/C=C\CCCCC[C@H](NC(=O)OC(C)(C)C)C(=O)N3C2)cc1 [Example 6]
< 100	CC(C)(C)OC(=O)N[C@H]1CCCCC/C=C\[C@@H]2C[C@@]2(C(=O)NS(=O)(=O)C2CC2)NC(=O)[C@@H]2C[C@@H](NC(=O)c3cnc4ccccc4c3)CN2C1=O [Example 29]
< 100	O=C(N[C@H]1CCCCC/C=C\[C@@H]2C[C@@]2(C(=O)NS(=O)(=O)C2CC2)NC(=O)[C@@H]2C[C@@H](NC(=O)c3sc4ccccc4c3Cl)CN2C1=O)OCC1CC1 [Example 52]
< 10000	COc1ccc(C(=O)N[C@@H]2C[C@H]3C(=O)N[C@]4(C(=O)O)C[C@H]4/C=C\CCCCC[C@H](NC(=O)OC(C)(C)C)C(=O)N3C2)cc1 [Example 61]
< 100	CC(C)(C)OC(=O)N[C@H]1CCCCC/C=C\[C@@H]2C[C@@]2(C(=O)NS(=O)(=O)C2CC2)NC(=O)[C@@H]2C[C@@H](NC(=O)c3nc4ccccc4[nH]3)CN2C1=O [Example 47]
< 1000	CC(C)(C)OC(=O)N[C@H]1CCCCC/C=C\[C@@H]2C[C@@]2(C(=O)O)NC(=O)[C@@H]2C[C@@H](NC(=O)c3cc4ccccc4[nH]3)CN2C1=O [Example 63]
< 100	CC(C)(C)OC(=O)N[C@H]1CCCCC/C=C\[C@@H]2C[C@@]2(C(=O)NS(=O)(=O)C2CC2)NC(=O)[C@@H]2C[C@@H](NC(=O)c3ccc4ccccc4c3)CN2C1=O [Example 27]
< 100	CC(CC(=O)N[C@H]1CCCCC/C=C\[C@@H]2C[C@@]2(C(=O)NS(=O)(=O)C2CC2)NC(=O)[C@@H]2C[C@@H](NC(=O)c3sc4ccccc4c3Cl)CN2C1=O)C(F)(F)F (some centres unmarked) [Example 53]
< 100	CC(C)(C)OC(=O)N[C@H]1CCCCC/C=C\[C@@H]2C[C@@]2(C(=O)NS(=O)(=O)C2CC2)NC(=O)[C@@H]2C[C@@H](NC(=O)c3cnn(-c4ccccc4)c3C(F)(F)F)CN2C1=O [Example 21]
< 100	CN(C)c1ccc(C(=O)N[C@@H]2C[C@H]3C(=O)N[C@]4(C(=O)NS(=O)(=O)C5CC5)C[C@H]4/C=C\CCCCC[C@H](NC(=O)OC(C)(C)C)C(=O)N3C2)cn1 [Example 13]
< 100	CC(C)(C)OC(=O)N[C@H]1CCCCC/C=C\[C@@H]2C[C@@]2(C(=O)NS(=O)(=O)C2CC2)NC(=O)[C@@H]2C[C@@H](NC(=O)c3ccc(-n4ccnc4)cc3)CN2C1=O [Example 20]
< 100	O=C(CCC(F)(F)F)N[C@H]1CCCCC/C=C\[C@@H]2C[C@@]2(C(=O)NS(=O)(=O)C2CC2)NC(=O)[C@@H]2C[C@@H](NC(=O)c3sc4ccccc4c3Cl)CN2C1=O [Example 50]
< 100	CC(C)(C)OC(=O)N[C@H]1CCCCC/C=C\[C@@H]2C[C@@]2(C(=O)NS(=O)(=O)C2CC2)NC(=O)[C@@H]2C[C@@H](NC(=O)c3ccc(-c4ccccc4)cc3)CN2C1=O [Example 19]
< 100	CC(C)(C)OC(=O)N[C@H]1CCCCC/C=C\[C@@H]2C[C@@]2(C(=O)NS(=O)(=O)C2CC2)NC(=O)[C@@H]2C[C@@H](NC(=O)c3ccc(C#N)cc3)CN2C1=O [Example 9]
< 100	COc1cccc2cc(C(=O)N[C@@H]3C[C@H]4C(=O)N[C@]5(C(=O)NS(=O)(=O)C6CC6)C[C@H]5/C=C\CCCCC[C@H](NC(=O)OC(C)(C)C)C(=O)N4C3)oc12 [Example 42]
< 100	COc1cccc(C(=O)N[C@@H]2C[C@H]3C(=O)N[C@]4(C(=O)NS(=O)(=O)C5CC5)C[C@H]4/C=C\CCCCC[C@H](NC(=O)OC(C)(C)C)C(=O)N3C2)c1 [Example 7]
< 100	CN(C)c1ccc(C(=O)N[C@@H]2C[C@H]3C(=O)N[C@]4(C(=O)NS(=O)(=O)C5CC5)C[C@H]4/C=C\CCCCC[C@H](NC(=O)OC(C)(C)C)C(=O)N3C2)cc1 [Example 11]
< 100	COc1ccc(C(=O)N[C@@H]2C[C@H]3C(=O)N[C@]4(C(=O)NS(=O)(=O)C5CC5)C[C@H]4/C=C\CCCCC[C@H](NC(=O)OC(C)(C)C)C(=O)N3C2)cc1C(F)(F)F [Example 8]

IC50 [nM]	SMILES
< 100	CC(C)(C)OC(=O)N[C@H]1CCCCC/C=C\[C@@H]2C[C@@]2(C(=O)NS(=O)(=O)C2CC2)NC(=O)[C@@H]2C[C@@H](NC(=O)c3csc(-c4ccc(Cl)cc4)n3)CN2C1=O [Example 26]
< 100	CC(C)(C)OC(=O)N[C@H]1CCCCC/C=C\[C@@H]2C[C@@]2(C(=O)NS(=O)(=O)C2CC2)NC(=O)[C@@H]2C[C@@H](NC(=O)c3csc(-c4ccccc4Cl)n3)CN2C1=O [Example 25]
< 100	CCc1ccc(C(=O)N[C@@H]2C[C@H]3C(=O)N[C@]4(C(=O)NS(=O)(=O)C5CC5)C[C@H]4/C=C\CCCCC[C@H](NC(=O)OC(C)(C)C)C(=O)N3C2)cc1 [Example 3]
< 100	COc1ccc2oc(C(=O)N[C@@H]3C[C@H]4C(=O)N[C@]5(C(=O)NS(=O)(=O)C6CC6)C[C@H]5/C=C\CCCCC[C@H](NC(=O)OC(C)(C)C)C(=O)N4C3)cc2c1 [Example 41]
< 100	CC(C)(C)OC(=O)N[C@H]1CCCCC/C=C\[C@@H]2C[C@@]2(C(=O)NS(=O)(=O)C2CC2)NC(=O)[C@@H]2C[C@@H](NC(=O)c3cccc(C#N)c3)CN2C1=O [Example 10]
< 100	CC(C)(C)OC(=O)N[C@H]1CCCCC/C=C\[C@@H]2C[C@@]2(C(=O)NS(=O)(=O)C2CC2)NC(=O)[C@@H]2C[C@@H](NC(=O)c3ccc(N4CCOCC4)nc3)CN2C1=O [Example 14]
< 100	CC(C)(C)OC(=O)N[C@H]1CCCCC/C=C\[C@@H]2C[C@@]2(C(=O)NS(=O)(=O)C2CC2)NC(=O)[C@@H]2C[C@@H](NC(=O)c3cc4cc(Cl)ccc4o3)CN2C1=O [Example 40]
< 10000	CC(C)(C)OC(=O)N[C@H]1CCCCC/C=C\[C@@H]2C[C@@]2(C(=O)O)NC(=O)[C@@H]2C[C@@H](NC(=O)c3cc4ccccc4s3)CN2C1=O [Example 59]
< 100	COc1cc2cc(C(=O)N[C@@H]3C[C@H]4C(=O)N[C@]5(C(=O)NS(=O)(=O)C6CC6)C[C@H]5/C=C\CCCCC[C@H](NC(=O)OC(C)(C)C)C(=O)N4C3)[nH]c2cc1OC [Example 37]
< 100	CC(C)(C)OC(=O)N[C@H]1CCCCC/C=C\[C@@H]2C[C@@]2(C(=O)NS(=O)(=O)C2CC2)NC(=O)[C@@H]2C[C@@H](NC(=O)c3cc4ccccc4s3)CN2C1=O [Example 43]
< 100	CC(C)(C)OC(=O)N[C@H]1CCCCC/C=C\[C@@H]2C[C@@]2(C(=O)NS(=O)(=O)C2CC2)NC(=O)[C@@H]2C[C@@H](NC(=O)c3ccc(S(N)(=O)=O)cc3)CN2C1=O [Example 17]
< 100	COc1ccc(C(=O)N[C@@H]2C[C@H]3C(=O)N[C@]4(C(=O)NS(=O)(=O)C5CC5)C[C@H]4/C=C\CCCCC[C@H](NC(=O)NC4CCCC4)C(=O)N3C2)cc1C(F)(F)F [Example 58]
< 10000	CCc1ccc(C(=O)N[C@@H]2C[C@H]3C(=O)N[C@]4(C(=O)O)C[C@H]4/C=C\CCCCC[C@H](NC(=O)OC(C)(C)C)C(=O)N3C2)cc1 [Example 68]
< 100	CC(C)(C)CC(=O)N[C@H]1CCCCC/C=C\[C@@H]2C[C@@]2(C(=O)NS(=O)(=O)C2CC2)NC(=O)[C@@H]2C[C@@H](NC(=O)c3sc4ccccc4c3Cl)CN2C1=O [Example 51]
< 100	CC(C)(C)NC(=O)N[C@H]1CCCCC/C=C\[C@@H]2C[C@@]2(C(=O)NS(=O)(=O)C2CC2)NC(=O)[C@@H]2C[C@@H](NC(=O)c3sc4ccccc4c3Cl)CN2C1=O [Example 49]
< 100	CC(C)(C)OC(=O)N[C@H]1CCCCC/C=C\[C@@H]2C[C@@]2(C(=O)NS(=O)(=O)C2CC2)NC(=O)[C@@H]2C[C@@H](NC(=O)c3ccc(Cl)c(Cl)c3)CN2C1=O [Example 16]
< 100	CC(C)(C)OC(=O)N[C@H]1CCCCC/C=C\[C@@H]2C[C@@]2(C(=O)NS(=O)(=O)C2CC2)NC(=O)[C@@H]2C[C@@H](NC(=O)c3c(Cl)cc(Cl)cc3Cl)CN2C1=O [Example 5]
